The text below walks through data of patent US11028073B2, “Butylphthalide-telmisartan hybrids, preparation method and application thereof” (GUANGDONG LONGFU MEDICINE CO., LTD., priority 2017, dated 2021).

One data set relates to AMPK. Kind of data set: Western blot of phosphorylated AMPK (p-AMPK) in cerebral cortex at the infarct side of tMCAO rats. It counts as in vivo, rat. The following applies: Compound C 20 mg/kg i.p. 30 min before I3. As to the method:
(§1) The experimental method was manipulated as described in 2. At 30 min before the administration of I3, rats were intraperitoneally injected with 20 mg/kg of AMPK inhibitor Compound C, and the volume of the ipsilateral hemisphere infarct and the neurobehavioral score were determined at 48 h post-ischemia. Western blot analysis was performed on ischemic brain tissue to determine the content of phosphorylated AMPK (p-AMPK) in the cerebral cortex at the infarct side.
For orientation: In western blotting, separated proteins are transferred to a membrane and probed.

Data set [1] has as its system rats with permanent middle cerebral artery occlusion. Kind of data set: Rotarod performance test in pMCAO rats. It counts as in vivo, rat. The settings on record: in s (unit assumed). How it is done:
(§2) Experimental method: Surgical method was described as the operation method for the above tMCAO. The thread embolism remained in the brain of rats without pulling out, and rotarod performance was tested every day. Brains were taken out at 72 h after ischemia for the determination of infarct volume and neurobehavioral score. The process of the rotarod performance test was as follows: rats were placed on a rotating rod of which the speed was accelerated from 4 rpm up to the maximum speed of 40 rpm within 5 minutes. Rats were trained for 3 to 7 days before model establishment, the rotarod performance was tested at 1, 2 and 3 days after pMCAO, respectively, and the falling time of rats were recorded.
(§3) In FIG. 3, pMCAO model is established on male rats of 260 to 280 g (thread embolism is not pulled out, resulting in permanent ischemia), the administration method is the same as that in FIG. 2, and the infract volume, neurobehavioral scores and rotarod test were determined at 72 h after ischemia, as described above.
For orientation: Falling from the rotarod earlier than controls is read as motor impairment.

In data set [2] the test system is rats with tMCAO. Kind of data set: Neurobehavioral function score in tMCAO rats. The class given is in vivo, rat. As to the method: (§4) Experimental method: 75 SD male rats weighing 300±20 g were raised under the condition of 25° C. and relative humidity of 60% to 75% for 1 week for experiment. Rats were randomized into 5 groups: sham group, vehicle group, drug administration group at 24 h after ischemia, drug administration group at 6 h after ischemia, drug administration group at 4 h after ischemia, respectively, with 15 animals in each group.
(§5) Establishment of transient middle cerebral artery occlusion (tMCAO) rat model: The rats were anesthetized by intraperitoneal injection of chloral hydrate, and lying on an operating table with limbs fixed with string. […] ECA was ligated and cut off, ICA was clamped at the distal end with an arterial clip, and then a small opening was cut at the intersection of ECA and ICA near the ECA. A nylon thread with paraffin coated on one end was inserted from the small cut opening into the internal carotid artery at the intersection of the internal and external carotid arteries and further into the anterior cerebral artery at the proximal end, to block the blood supply to the middle cerebral artery on this side. At 120 minutes after ischemia, the nylon thread was withdrawn at the incision of the external carotid artery to achieve the reperfusion of the middle cerebral artery. The room temperature during surgery was controlled at 25 to 27° C.
(§6) Administration method: administrating after surgery with a concentration of 1 mg/kg. Drug administration group at 4 h after ischemia was administrated at 4 h after ischemia, and once again after 24 h. Drug administration group at 6 h after ischemia was administrated at 6 h after ischemia, and once again after 24 h. Drug administration group at 24 h after ischemia was administrated once at 24 h after ischemia.
(§7) After the time window for administration of 13 was determined, administration at 4 hour post-ischemia was selected as the subsequent testing time point. 95 SD male rats were randomized into 7 groups: sham group, vehicle group, NBP group, Telm group, NBP+Telm group, 13 group and edaravone group, respectively. The surgical procedure was as described above, NBP (1 mg/kg), Telm (1 mg/kg), NBP (1 mg/kg)+Telm (1 mg/kg), 13 (1 mg/kg) and edaravone (3 mg/kg) were administrated at 4 hour post-ischemia, and once again at 24 h, respectively. The infarct volume and neurobehavioral score were determined at 48 h post-ischemia.
The neurobehavioral function score of tMCAO rats were scored at 48 h after ischemia. Criteria for scoring is as follows: 0 point, no symptoms of nerve damage; 1 point, inability of fully extending forepaw at the healthy side; 2 points, circling to the healthy side; 3 points, tilting toward the healthy side; 4 points, inability of spontaneous walking and losing consciousness.
as §1
(§8) In FIG. 2, tMCAO models are established in male rats of 260 to 280 g (thread embolism is pulled out from the rats after 2 hour ischemia, resulting in reperfusion), 13 compound (1 mg/kg) is intravenously injected at 4 h post-ischemia, and intravenously injected again at 24 h post-ischemia. […]

Data set [3] has as its system rats with permanent middle cerebral artery occlusion. Kind of data set: Neurobehavioral score in pMCAO rats. It counts as in vivo, rat. The settings on record: for Neurobehavioral score: 72 h after ischemia. How it is done: as §2, §3
The subject of data set [4] is rats with tMCAO. Kind of data set: Infarct volume (TTC staining) in rats with transient middle cerebral artery occlusion (tMCAO). It counts as in vivo, rat. How it is done: as §4, §5, §6, §7
At 48 h post-ischemia, the rats were anesthetized with pentobarbital sodium, decapitated to get brain quickly, olfactory bulb, cerebellum and lower brain stem were removed, and coronal was cut into 6 slices. Then the brain slices were placed in the solution containing 4% TTC and 1 mol/L of K2HPO4, incubated at 37° C. for 30 min in the dark, during which the brain slices were flipped every 7 to 8 min. […] Images were taken after staining, and the infarct volume was calculated using an image analysis software. The percentage of infarct volume is calculated by the following formula: infarct area/total brain cross-sectional area×100%.
as §1, §8

For data set [5], the system named is rats with permanent middle cerebral artery occlusion. Kind of data set: Infarct volume in rats with permanent middle cerebral artery occlusion (pMCAO). The following applies: for Infarction rate (%): 72 h after ischemia. The class given is in vivo, rat. As to the method: as §2, §3
In a further data set the test system is Nrf2. Kind of data set: Neh2-Luciferase reporter assay for Nrf2 activation in BV2 cells. The class given is cell-based. The settings on record: 24 h incubation, BV2 cells. As to the method:
BV2 cells were transfected with Neh2-Luciferase reporter gene plasmid for 6 h, replaced a normal serum-containing medium and cultured for 24 h, then incubated with drug for 24 h, and treated with Reporter Lysis Buffer for 20 min. The Reporter Lysis Buffer was added to a 96-well plate, and the activity of luciferase was measured.
(§9) In FIGS. 1A and 1B, mouse primary microglia are pre-incubated with 1 μM or 5 μM of test compounds for 3 hours, then stimulated with LPS for 5 hours, and the protein content of pro-inflammatory factor TNF-α is determined by ELISA method. In FIG. 1C, the activations of the compounds on Nrf2 are tested by Luciferase Reporter Assay.
(In general: Reporter assays use an easily measured gene product as a stand-in for the process of interest.)

A further data set concerns TNF-α. Kind of data set: LPS-induced TNF-α release in mouse primary microglia (ELISA). The settings on record: 1 μM or 5 μM drug pre-administrated 3 h, then 100 ng/mL LPS 5 h; supernatant ELISA. It counts as cell-based. How it is done: The primary microglia were extracted from the brain of mouse and cultured, were pre-administrated with 1 μM or 5 μM drugs for 3 h, and then stimulated with 100 ng/mL lipopolysaccharide (LPS) for 5 h. The supernatant of cell culture was extracted, and the expression level of TNF-α in the supernatant was determined by ELISA method.
as §9

Where [6] appears, read: tMCAO rats, comparison groups, administrated at 4 h post-ischemia and again at 24 h, 1 mg/kg (edaravone 3 mg/kg), scored 48 h.
[7] abbreviates: administrated at 4 h post-ischemia and again at 24 h, 1 mg/kg (edaravone 3 mg/kg), determined 48 h post-ischemia.

The structures appear in SMILES notation.

For the molecule `c1cc(-c2cnn3cc(-c4ccc(OCCN5CCCCC5)cc4)cnc23)ccn1` [Compound C, reference compound], in the data set on AMPK, the “AMPK activity (p-AMPK content in cerebral cortex at the infarct side)” value was “inhibit the increase of AMPK activity induced by I3”.

Consider `CC1=NN(c2ccccc2)C(=O)C1` [Edaravone, reference compound], for which the Falling time in [1] (Before modeling (baseline)) turned out to be 292.17; in data set [1] (Day 1 after pMCAO), 56.33; in data set [1] (Day 2 after pMCAO), 64.00; in data set [1] (Day 3 after pMCAO), 74.00. The results for the Neurobehavioral score (in the data set on rats with tMCAO [2] (setting [6]); in [3]) were 1.556 and 1.7, respectively. The “Infarction rate (%)” value is on record as 6.183% with rats with tMCAO [4] (setting [7]) and 16.7% in data set [5].

Usually melting point stands for the temperature of the solid-liquid transition. Take `CCCCC(OC(C)=O)c1ccccc1C(=O)NCCCCCCCCNC(=O)c1ccccc1-c1ccc(Cn2c(CCC)nc3c(C)cc(-c4nc5ccccc5n4C)cc32)cc1` (centres unmarked) [I3, 8-N-{2-[(1-acetoxyl)n-pentyl]benzoyl}octanediamine telmisartan amide]: the melting point lay in the range of 94 to 95 °C. For the same molecule, the “activity of intracellular Nrf2 (luciferase)” value with Nrf2 (1 μM) is “significantly activate the activity of intracellular Nrf2”. Also, the “activity of intracellular Nrf2 (luciferase)” value in the data set on Nrf2 (10 μM) is reported as “significantly activate the activity of intracellular Nrf2”. Further, in data set [1] (Before modeling (baseline)), the Falling time was 279.10. Also, the Falling time in data set [1] (Day 1 after pMCAO) is recorded as 68.63. The Falling time in data set [1] (Day 2 after pMCAO) was found to be 94.00. This molecule also came in with a Falling time in data set [1] (Day 3 after pMCAO) of 125.13. Moreover, in the data set with rats with tMCAO [2] (tMCAO (I/R) rats, administration at each time point), the “neurological function score compared with vehicle group” value is reported as “significantly reduced ischemia-induced neurological function score”. In addition, the Neurobehavioral score with rats with tMCAO [2] (tMCAO rats, 1 mg/kg, administrated after 4 h (time-window groups), scored 48 h after ischemia (0-4 points)) was found to be 2.385. Further, the Neurobehavioral score in the data set with rats with tMCAO [2] (tMCAO rats, 1 mg/kg, administrated after 6 h, scored 48 h after ischemia (0-4 points)) was 1.867. For the same molecule, in the data set on rats with tMCAO [2] (tMCAO rats, 1 mg/kg, administrated after 24 h, scored 48 h after ischemia (0-4 points)), the Neurobehavioral score is 1.182. The “neurological function compared with NBP, Telm and NBP+Telm” value in the data set with rats with tMCAO [2] (tMCAO rats, 4 h post-ischemia) is on record as “more pronounced effect on improving the neurological function”. The same molecule had a Neurobehavioral score with rats with tMCAO [2] (tMCAO rats, I3 1 mg/kg i.v. at 4 h after ischemia, with or without Compound C 20 mg/kg i.p. 30 min before, 48 h post-ischemia) of 1.182. Also, the Neurobehavioral score in the data set on rats with tMCAO [2] (setting [6]) was determined as 1.182. For the same molecule, the Neurobehavioral score in data set [3] is 1.6. For the same molecule, the neurobehavioral impairment entry in data set [3] (in words) is “improved neurobehavioral impairment”. The “Infarction rate (%)” value with rats with tMCAO [4] (1 mg/kg administrated at 6 h after ischemia and once again after 24 h, determined 48 h post-ischemia) turned out to be 13.07%. For the same molecule, in the data set on rats with tMCAO [4] (1 mg/kg administrated once at 24 h after ischemia, determined 48 h post-ischemia), the “Infarction rate (%)” value is recorded as 20.72%. The “infarct volume compared with NBP group, Telm group and NBP+Telm group” value with rats with tMCAO [4] (4 h post-ischemia) is recorded as “more pronounced effect on reducing the infarct volume”. In addition, the “Infarction rate (%)” value in the data set with rats with tMCAO [4] (I3 1 mg/kg i.v. at 4 h after ischemia, with or without Compound C 20 mg/kg i.p. 30 min before, 48 h post-ischemia) is recorded as 6.655%. The “Infarction rate (%)” value in the data set on rats with tMCAO [4] (setting [7]) was 6.655%. The “infarct volume compared with vehicle group” value in the data set with rats with tMCAO [4] (administrating at each time point (4 h, 6 h, 24 h)) is “significantly reduced the infarct volume”. For the same molecule, in the data set with AMPK, the “AMPK activity (p-AMPK content in cerebral cortex at the infarct side)” value is “increase of AMPK activity”. Further, the “Infarction rate (%)” value in [5] amounted to 12.48%. The infarct volume result in data set [5] (in words) is on record as “significantly reduced the infarct volume”. Also, in the data set on TNF-α, the “LPS-induced TNF-α release in mouse primary microglia” value is “significantly inhibit LPS-induced TNF-α release”.
